Four compounds from paper PMC3794980, “Identification of Conserved and HLA Promiscuous DENV3 T-Cell Epitopes” (PLoS Neglected Tropical Diseases, 2013) can be followed below.

Molecules are shown by their SMILES. Read-outs that look alike come from different tables or passages of the source.

Targets include DRB5*0101 (Homo sapiens, UniProt P01903+Q30154); DRB1*0901 (Homo sapiens, UniProt P01903+P01911, A100R/A103E/D57H/D86V/F55Y/F60I/F76Y/I96F/K127E/L162R/M171V/P40D/Q125H/Q99R/R33Q/R42F/S133A/S66N/T210M/V115G/W38K/Y107V/Y59G/Y89S); DRB4*0101 (Homo sapiens, UniProt P01903+P13762, G164S); DRB1*1101 (Homo sapiens, UniProt P01903+P01911, A100R/A169T/A87E/I96F/K41T/L162R/M171V/P40S/Q125H/Q178H/Q39Y/Q99D/R42S/S66Y/T262R/V115G/W38E); DRB1*0405 (Homo sapiens, UniProt P01903+P01911, A100R/A169T/D86S/F76Y/I96L/K127E/L162R/M171V/N62H/P40V/Q125Y/R42H/S133A/S149N/S66Y/V115G/V209L/W38E); DRB3*0101 (Homo sapiens, UniProt P01903+P79483); DRB1*1302 (Homo sapiens, UniProt P01903+P01911, A100E/A169T/K41T/L162R/M171V/P40S/Q125H/Q178H/Q39Y/Q99D/R42S/S66N/T262R/V115G/W38E/Y61H); DRB1*0701 (Homo sapiens, UniProt P01903+P01911, A100R/A102G/A103Q/D57E/D86V/E43K/F76Y/K127E/L162R/M171V/P40G/Q125H/Q99D/R33Q/R42Y/R54Q/S133A/S66F/T210M/V115G/Y107V/Y59L/Y89S); DRB1*0401 (Homo sapiens, UniProt P01903+P01911, A100K/A169T/F76Y/I96L/K127E/L162R/M171V/N62H/P40V/Q125Y/R42H/S133A/S149N/S66Y/V115G/V209L/W38E); DRB1*0802 (Homo sapiens, UniProt P01903+P01911, A100R/A103L/A169T/F76Y/H45Y/I96F/K41T/L162R/M171V/P40S/Q125H/Q178H/Q39Y/Q99D/R218S/R42G/S66Y/V115G/W38E); DRB1*0101 (Homo sapiens, UniProt P01903+P01911, A100R/D57E/F55L/F60I/F76Y/I96L/L162R/M171V/P40L/Q125E/R42F/V115G/Y59C); DRB1*0404 (Homo sapiens, UniProt P01903+P01911, A100R/A169T/F76Y/I96L/K127E/L162R/M171V/N62H/P40V/Q125Y/R42H/S133A/S149N/S66Y/V209L/W38E); DRB1*0301 (Homo sapiens, UniProt P01903+P01911, A100K/A102G/A103R/A169T/F55Y/I96L/K41T/L162R/M171V/P40S/Q125H/Q178H/Q39Y/R42S/S66N/T106N/T262R/W38E/Y61H); DRB1*1501 (Homo sapiens, UniProt P01903+P01911).

Assay in all cases: biochemical
What all share (assay type): binding

Where [1] appears, read: competitive inhibition of radiolabeled standard peptide, '-' distinct from ND, read-out: Binding Affinity (nM) DRB1*0901.
[2] abbreviates: competitive inhibition of radiolabeled standard peptide, '-' distinct from ND, read-out: Binding Affinity (nM) DRB1*1302.

Sequence of DRB1*1101 (P01903 26-254, other chains not shown): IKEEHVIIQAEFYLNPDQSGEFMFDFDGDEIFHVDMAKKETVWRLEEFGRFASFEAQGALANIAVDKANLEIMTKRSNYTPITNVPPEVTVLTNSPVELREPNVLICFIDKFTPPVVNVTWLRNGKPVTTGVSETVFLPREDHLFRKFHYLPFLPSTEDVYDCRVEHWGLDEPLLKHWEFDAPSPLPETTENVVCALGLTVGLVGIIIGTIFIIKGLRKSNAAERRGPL
Sequence of DRB1*0301 (P01903 26-254, other chains not shown): as above
Sequence of DRB1*1302 (P01903 26-254 limits assumed, other chains not shown): as the sequence (P01903 26-254, other chains not shown) above

Turning to `CC[C@H](C)[C@H](NC(=O)[C@H](CC(=O)O)NC(=O)[C@@H](N)CC(C)C)C(=O)N[C@@H](CCC(=O)O)C(=O)N[C@@H](CC(C)C)C(=O)N[C@@H](CCC(N)=O)C(=O)N[C@@H](CCCCN)C(=O)N[C@H](C(=O)N[C@@H](CCC(=O)O)C(=O)N[C@@H](C)C(=O)N[C@H](C(=O)N[C@@H](CCC(N)=O)C(=O)N[C@@H](CC(C)C)C(=O)N[C@@H](C)C(=O)N[C@H](C(=O)O)[C@@H](C)O)[C@@H](C)O)[C@@H](C)O` [Envelope 41-55], the IC50 against DRB5*0101 was 684 nM; on DRB1*0901 (setting [1]), 132 nM; against DRB4*0101, 6.5 nM; against DRB1*1101, 3260 nM; against DRB1*0405, 583 nM; against DRB3*0101 it was 3330 nM. Moreover, the IC50 on DRB1*1302 (setting [2]) amounted to 27 nM; on DRB1*0701, 3.1 nM; on DRB1*0401, 349 nM; against DRB1*0802, 5.1 nM; against DRB1*0101, 2.3 nM.
For `CC(C)C[C@H](NC(=O)[C@H](CCCNC(=N)N)NC(=O)[C@H](Cc1c[nH]cn1)NC(=O)[C@H](CC(=O)O)NC(=O)[C@H](CS)NC(=O)[C@H](CC(C)C)NC(=O)[C@H](CCC(N)=O)NC(=O)[C@@H](NC(=O)[C@H](Cc1ccc(O)cc1)NC(=O)[C@@H](NC(=O)[C@H](CCC(=O)O)NC(=O)[C@H](CCCNC(=N)N)NC(=O)[C@H](CC(C)C)NC(=O)[C@H](CCCCN)NC(=O)[C@@H](N)CC(C)C)C(C)C)[C@@H](C)O)C(=O)O` [NS1 169-183], the IC50 against DRB5*0101 was found to be 1300 nM; on DRB4*0101, 878 nM; against DRB1*1101, 4800 nM; on DRB1*0405, 277 nM; on DRB3*0101, 747 nM; on DRB1*1302 (setting [2]), 9960 nM. Further, the IC50 at DRB1*0701 was 136 nM; on DRB1*0401 it was 474 nM; at DRB1*0802 it was 2580 nM; against DRB1*0101 it was 226 nM; at DRB1*0404, 457 nM; on DRB1*0301 it was 2360 nM.
In the case of `CSCC[C@H](NC(=O)CNC(=O)[C@H](CCCCN)NC(=O)[C@H](CC(C)C)NC(=O)[C@H](CCC(=O)O)NC(=O)[C@H](CC(C)C)NC(=O)[C@H](CCCCN)NC(=O)[C@H](CC(=O)O)NC(=O)[C@H](CCSC)NC(=O)[C@H](CCCCN)NC(=O)[C@H](CC(C)C)NC(=O)[C@H](CCCNC(=N)N)NC(=O)[C@H](CS)NC(=O)[C@H](CCCCN)NC(=O)[C@@H](N)CC(C)C)C(=O)O` [Envelope 281-295], the IC50 turned out to be 2500 nM at DRB5*0101; 7010 nM against DRB1*0901; 3330 nM at DRB1*1101; 9740 nM against DRB1*0405; 31 nM on DRB3*0101; 915 nM against DRB1*1302. For the same compound, the IC50 against DRB1*0701 worked out at 2160 nM; on DRB1*0401 it was 2910 nM; against DRB1*0802, 4460 nM; against DRB1*1501 it was 652 nM; on DRB1*0404 it was 13200 nM; against DRB1*0301 it was 17 nM.
In the case of `CC[C@H](C)[C@H](NC(=O)[C@H](CCCCN)NC(=O)CNC(=O)[C@H](CCC(=O)O)NC(=O)[C@@H](NC(=O)[C@H](CS)NC(=O)[C@H](CC(C)C)NC(=O)[C@H](CCCCN)NC(=O)[C@H](CCCNC(=N)N)NC(=O)[C@H](CC(C)C)NC(=O)[C@@H](NC(=O)[C@H](C)NC(=O)[C@H](CC(C)C)NC(=O)[C@H](CCC(N)=O)NC(=O)[C@@H](N)[C@@H](C)O)[C@@H](C)O)[C@@H](C)CC)C(=O)O` [Envelope 51-65], the IC50 against DRB5*0101 worked out at 1850 nM; on DRB1*0901 (setting [1]) it was 2340 nM; against DRB4*0101 it was 154 nM; against DRB1*1101, 40 nM; at DRB1*0405, 6340 nM; against DRB3*0101, 8300 nM. The IC50 on DRB1*1302 (setting [2]) was determined as 1080 nM; at DRB1*0401, 2140 nM; at DRB1*0802 it was 130 nM; against DRB1*1501 it was 982 nM; at DRB1*0404, 10100 nM; on DRB1*0301, 2510 nM.
